# ± gives the expanded uncertainty stated by the source.
# Experiment: activity coefficient (dimensionless); of the first substance listed, at infinite dilution; xn = mol fraction of the nth substance listed
# Conditions: 100 kPa, Liquid, Chromatography, x1 = 0
SMILES,activity coefficient (308.15 K),activity coefficient (318.15 K),activity coefficient (328.15 K),activity coefficient (338.15 K),activity coefficient (348.15 K),activity coefficient (358.15 K),activity coefficient (368.15 K)
CCCCCCCC [octane] + CCCC[n+]1ccc(C#N)cc1.O=S(=O)([N-]S(=O)(=O)C(F)(F)F)C(F)(F)F,65 ± 5.6,59.9 ± 5.2,55.3 ± 4.8,51.3 ± 4.4,47.9 ± 4.1,45 ± 4,42.4 ± 3.7
CCCCCO [pentan-1-ol] + CCCC[n+]1ccc(C#N)cc1.O=S(=O)([N-]S(=O)(=O)C(F)(F)F)C(F)(F)F,3.84 ± 0.33,3.58 ± 0.31,3.36 ± 0.29,3.15 ± 0.27,2.97 ± 0.26,2.81 ± 0.24,2.67 ± 0.23
CCCC(C)=O [pentan-2-one] + CCCC[n+]1ccc(C#N)cc1.O=S(=O)([N-]S(=O)(=O)C(F)(F)F)C(F)(F)F,0.697 ± 0.06,0.739 ± 0.063,0.783 ± 0.066,0.824 ± 0.069,0.868 ± 0.072,0.909 ± 0.075,0.95 ± 0.078
CCC(=O)CC [pentan-3-one] + CCCC[n+]1ccc(C#N)cc1.O=S(=O)([N-]S(=O)(=O)C(F)(F)F)C(F)(F)F,0.697 ± 0.06,0.746 ± 0.063,0.792 ± 0.066,0.84 ± 0.07,0.889 ± 0.074,0.936 ± 0.077,0.984 ± 0.081
CCCCC [pentane] + CCCC[n+]1ccc(C#N)cc1.O=S(=O)([N-]S(=O)(=O)C(F)(F)F)C(F)(F)F,26.7 ± 2.3,24.2 ± 2.1,22 ± 1.9,20.2 ± 1.7,18.6 ± 1.6,17.2 ± 1.5,16 ± 1.4
CCCO [propan-1-ol] + CCCC[n+]1ccc(C#N)cc1.O=S(=O)([N-]S(=O)(=O)C(F)(F)F)C(F)(F)F,2.38 ± 0.21,2.23 ± 0.19,2.1 ± 0.18,1.98 ± 0.17,1.88 ± 0.16,1.79 ± 0.15,1.7 ± 0.14
CC(C)O [propan-2-ol] + CCCC[n+]1ccc(C#N)cc1.O=S(=O)([N-]S(=O)(=O)C(F)(F)F)C(F)(F)F,2.25 ± 0.19,2.08 ± 0.18,1.95 ± 0.17,1.83 ± 0.16,1.73 ± 0.15,1.63 ± 0.14,–
CCCc1ccccc1 [propylbenzene] + CCCC[n+]1ccc(C#N)cc1.O=S(=O)([N-]S(=O)(=O)C(F)(F)F)C(F)(F)F,3.8 ± 0.33,3.94 ± 0.34,4.07 ± 0.35,4.21 ± 0.36,4.33 ± 0.37,4.45 ± 0.38,4.58 ± 0.4
c1ccncc1 [pyridine] + CCCC[n+]1ccc(C#N)cc1.O=S(=O)([N-]S(=O)(=O)C(F)(F)F)C(F)(F)F,0.47 ± 0.044,0.5 ± 0.046,0.53 ± 0.048,0.56 ± 0.05,0.591 ± 0.052,0.62 ± 0.054,0.65 ± 0.056
C=Cc1ccccc1 [styrene] + CCCC[n+]1ccc(C#N)cc1.O=S(=O)([N-]S(=O)(=O)C(F)(F)F)C(F)(F)F,1.28 ± 0.11,1.36 ± 0.11,1.44 ± 0.12,1.52 ± 0.13,1.6 ± 0.14,1.67 ± 0.14,1.75 ± 0.15
C1CCOC1 [tetrahydrofuran] + CCCC[n+]1ccc(C#N)cc1.O=S(=O)([N-]S(=O)(=O)C(F)(F)F)C(F)(F)F,0.622 ± 0.054,0.661 ± 0.057,0.701 ± 0.06,0.742 ± 0.063,0.779 ± 0.065,0.818 ± 0.068,0.858 ± 0.071
c1ccsc1 [thiophene] + CCCC[n+]1ccc(C#N)cc1.O=S(=O)([N-]S(=O)(=O)C(F)(F)F)C(F)(F)F,0.916 ± 0.076,0.96 ± 0.08,1 ± 0.08,1.05 ± 0.09,1.1 ± 0.09,1.14 ± 0.09,1.18 ± 0.1
Cc1ccccc1 [toluene] + CCCC[n+]1ccc(C#N)cc1.O=S(=O)([N-]S(=O)(=O)C(F)(F)F)C(F)(F)F,1.46 ± 0.12,1.54 ± 0.13,1.62 ± 0.14,1.7 ± 0.14,1.78 ± 0.15,1.86 ± 0.16,1.94 ± 0.17
O [water] + CCCC[n+]1ccc(C#N)cc1.O=S(=O)([N-]S(=O)(=O)C(F)(F)F)C(F)(F)F,3.31 ± 0.29,3.01 ± 0.26,2.74 ± 0.24,2.52 ± 0.22,2.33 ± 0.2,2.16 ± 0.19,2 ± 0.17

# Source: the NIST ThermoML archive (doi:10.1016/j.jct.2016.01.017)
